Molecules are shown by their SMILES.

The subject of one test is Dd2 strain of P. falciparum. The experiment in a line: Activity against the Dd2 strain of P. falciparum (SYBR Green I, 72-h incubation). The class given is cell-based. Particulars: Plasmodium falciparum, DD2, 72 h, read-out: EC^50 Dd2. As to the method:
The Dd2 strain of P. falciparum was cultured in complete medium (RPMI with L-glutamine, 4.3% heat-inactivated O-positive human serum, 2.08 mg/ml albumax, 0.013 mg/ml hypoxanthine, 1.17 mg/ml glucose, 0.18% NaHCO3, 0.031 M Hepes, 2.60 mM NaOH, and 0.043 mg/ml gentamicin) until the parasitemia reached 3-8%. Parasitemia was determined by checking at least 500 red blood cells from a Giemsa-stained blood smear. The Dd2 cultures along with tested O-positive red blood cells are centrifuged at room temperature at 2,000 rpm for 5 min using an Eppendorf centrifuge 581 OR with an A-4-81 rotor. The medium was aspirated off. For the compound screening, a parasite dilution at a 1% parasitemia and 1.0% hematocrit was created with screening medium (RPMI with L-glutamine, 4.16 mg/ml albumax II, 0.013 mg/ml hypoxanthine, 1.73 mg/ml glucose, 0.18% NaHCO3, 0.031M Hepes, 2.60 mM NaOH, and 0.043 mg/ml gentamicin). The suspension was gassed with 93% nitrogen, 4% carbon dioxide, and 3% oxygen and placed at 37° C. until needed. Using a liquid dispenser, 20 μl of screening medium was dispensed into 384-well, black, clear-bottom plates. With a PinTool, 100 nl of compounds dissolved in DMSO was transferred into the assay plates along with control compound (mefloquine). Next, 30 μl of the parasite suspension in screening medium was then dispensed into the assay plates such that the final parasitemia was 1%, and the final hematocrit was 1.0%. Final concentration of DMSO was 0.125%. Mefloquine at a final concentration of 20 μM and DMSO at a final concentration of 0.125% were used within the assay plates to serve as background and baseline controls, respectively. The assay plates were transferred to incubators (93% nitrogen, 4% carbon dioxide, and 3% oxygen during the 72-h incubation at 37° C.). Ten microliters of detection reagent consisting of 1 OX SYBR Green I (Invitrogen; supplied in 10,000× concentration) in lysis buffer (20 mM Tris-HCl, 5 mM EDTA, 0.16% Saponin wt/vol, 1.6% Triton X vol/vol) was dispensed into the assay plates. For optimal staining, the assay plates were left at room temperature for 24 h in the dark. The assay plates were read by using an Envision (PerkinElmer) reader, with 505 dichroic mirrors with 485-nm excitation and 530-nm emission settings, and the plate reads were from the bottom.
For `COc1ccc2c3c([nH]c2c1)C(CO)N(C(=O)Nc1ccc(F)cc1)CC31CCN(Cc2cc(-c3ccccc3)on2)CC1` (stereo in doubt) [Compound 111, (R)-N-(4-fluorophenyl)-1′-(hydroxymethyl)-7′-methoxy-1-((5-phenylisoxazol-3-yl)methyl)-3′,9′-dihydrospiro [piperidine-4,4′-pyrido[3,4-b]indole]-2′(1′H)-carboxamide], the EC50 amounted to 0.451 µM.
Still for that read-out and setting: as for `COc1ccc2c3c([nH]c2c1)[C@H](CO)N(C(C)=O)CC31CCN(C(=O)Nc2ccccc2Cl)CC1` [Compound 1, (R)-2′-acetyl-N-(2-chlorophenyl)-1′-(hydroxymethyl)-7′ -methoxy-1′,2′,3′,9′-tetrahydrospiro [piperidine-4,4′-pyrido [3,4-b]indole]-1-carboxamide], the figure is 0.214 to 0.345 µM; as for `COc1ccc2c3c([nH]c2c1)C(C)(C)N(C(C)=O)CC31CCN(C(=O)Nc2ccccc2F)CC1` [Compound 2, 2′-acetyl-N-(2-fluorophenyl)-7′ -methoxy-1′,1′-dimethyl-1′,2′,3′,9′-tetrahydrospiro [piperidine-4,4′-pyrido[3,4-b]indole]-1-carboxamide], 0.12 to 0.303 µM.
`COc1ccc2c3c([nH]c2c1)[C@H](CO)N(C(=O)C(F)(F)F)CC31CCN(C(=O)Nc2ccccc2F)CC1` [Compound 3, (R)-N-(2-fluorophenyl)-1′-(hydroxymethyl)-7′-methoxy-2′-(2,2,2-trifluoroacetyl)-1′,2′,3′,9′-tetrahydrospiro[piperidine-4,4′-pyrido[3,4-b]indole]-1-carboxamide]: the EC50 was 1.61 µM.
For `COc1ccc2c3c([nH]c2c1)[C@H](CO)N(C(C)=O)CC31CCNCC1` [Compound 4, (R)-1-(1′-(hydroxymethyl)-7′-methoxyspiro [piperidine-4,4′-pyrido[3,4-b]indol]-2′(1′H,3′H,9′H)-yl)ethanone], the EC50 came out at 10.7 µM.
Consider `COc1ccc2c3c(n(C)c2c1)[C@H](CO)N(C(C)=O)CC31CCN(C(=O)Nc2ccccc2F)CC1` [Compound 5, (R)-2′-acetyl-N-(2-fluorophenyl)-1′-(hydroxymethyl)-7′-methoxy-9′-methyl-1′,2′,3′,9′-tetrahydrospiro [piperidine-4,4′-pyrido[3,4-b]indole]-1-carboxamide], for which the EC50 came to 6.49 µM.
On the same count and under the same terms, as for `CNC[C@H]1c2[nH]c3cc(OC)ccc3c2C2(CCN(C(=O)Nc3ccccc3F)CC2)CN1C(C)=O` [Compound 6, (S)-2′-acetyl-N-(2-fluorophenyl)-7′-methoxy-1′-((methylamino)methyl)-1′,2′,3′,9′-tetrahydrospiro[piperidine-4,4′-pyrido[3,4-b]indole]-1-carboxamide], the figure is 0.183 to 0.319 µM; as for `COc1ccc2c3c([nH]c2c1)[C@H](CO[Si](C)(C)C(C)(C)C)N(C(C)=O)CC31CCN(C(=O)Nc2cccnc2)CC1` [Compound 7], 1.38 µM; as for `COc1ccc2c3c([nH]c2c1)[C@H](CO)N(C(C)=O)CC31CCN(C(=O)Nc2ccc(F)cc2)CC1` [Compound 8, (R)-2′-acetyl-N-(4-fluorophenyl)-1′-(hydroxymethyl)-7′ -methoxy-1′,2′,3′,9′-tetrahydrospiro[piperidine-4,4′-pyrido[3,4-b]indole]-1-carboxamide], 1.77 µM.
As for `COc1ccc2c3c([nH]c2c1)[C@H](CO)N(C(=O)C(C)C)CC31CCN(C(=O)Nc2ccccc2F)CC1` [Compound 9], the EC50 worked out at 2.91 µM.
The same measure, in the same setting: the value for `COc1ccc2c3c([nH]c2c1)[C@H](CO)N(C(C)=O)CC31CCN(C(=O)Nc2ccc(Cl)cc2)CC1` [Compound 10] was 3.38 µM.
In the case of `COc1ccc2c3c([nH]c2c1)C(C)(C)NCC31CCN(C(=O)OC(C)(C)C)CC1` [Compound 11], the EC50 worked out at 4.43 µM.
In the case of `COc1ccc2c3c([nH]c2c1)[C@H](CO)N(C(C)=O)CC31CCN(C(=O)Nc2cccc(Cl)c2)CC1` [Compound 13, (R)-2′-acetyl-N-(3-chlorophenyl)-1′-(hydroxymethyl)-7′-methoxy-1′,2′,3′,9′-tetrahydrospiro [piperidine-4,4′-pyrido[3,4-b]indole]-1-carboxamide], the EC50 is 0.127 to 0.162 µM.
As to `COc1ccc2c3c([nH]c2c1)C(C)(C)N(C(C)=O)CC31CCN(C(=O)OC(C)(C)C)CC1` [Compound 14, tert-butyl 2′-acetyl-7′-methoxy-1′,1′-dimethyl-1′,2′,3′,9′-tetrahydrospiro [piperidine-4,4′-pyrido[3,4-b]indole]-1-carboxylate], the EC50 came to 0.415 µM.
Turning to `C=CCOC(=O)N1CC2(CCN(C(=O)Nc3ccccc3F)CC2)c2c([nH]c3cc(OC)ccc23)[C@@H]1CO` [Compound 16, (R)-allyl 1-((2-fluorophenyl)carbamoyl)-1′-(hydroxymethyl)-7′-methoxy-3′,9′-dihydrospiro[piperidine-4,4′-pyrido[3,4-b]indole]-2′(1′H)-carboxylate], the EC50 is 2.41 µM.
With `COc1ccc2c3c(n(C)c2c1)[C@H](COC(C)=O)N(C(C)=O)CC31CCN(C(=O)Nc2ccccc2F)CC1` [Compound 17, (R)-(2′-acetyl-1-((2-fluorophenyl)carbamoyl)-7′-methoxy-9′-methyl-1′,2′,3′,9′-tetrahydrospiro[piperidine-4,4′-pyrido[3,4-b]indol]-1′-yl)methylacetate], the EC50 came to 0.834 µM.
For the compound `C=CCOC(=O)N1CC2(CCN(C(=O)OC(C)(C)C)CC2)c2c([nH]c3cc(OC)ccc23)[C@@H]1CO[Si](C)(C)C(C)(C)C` [Compound 18, (R)-2′-allyl 1-tert-butyl 1′-(((tert-butyldimethylsilyl)oxy)methyl)-7′-methoxy-3′,9′-dihydrospiro[piperidine-4,4′-pyrido[3,4-b]indole]-1,2′(1′H)-dicarboxylate], the EC50 came out at 0.763 µM.
For `COc1ccc2c3c([nH]c2c1)[C@H](CO[Si](C)(C)C(C)(C)C)N(C(C)=O)CC31CCN(CCc2ccccc2F)CC1` [Compound 19, (R)-1-(1′-(((tert-butyldimethylsilyl)oxy)methyl)-1-(2-fluorophenethyl)-7′-methoxyspiro[piperidine-4,4′-pyrido[3,4-b]indol]-2′(1′H,3′H,9′H)-yl)ethanone], the EC50 was found to be 1.2 µM.
With `CCC(=O)N1CC2(CCN(C(=O)Nc3ccccc3F)CC2)c2c([nH]c3cc(OC)ccc23)[C@@H]1CO` [Compound 20, (R)-N-(2-fluorophenyl)-1′-(hydroxymethyl)-7′-methoxy-2′-propionyl-1′,2′,3′,9′-tetrahydrospiro[piperidine-4,4′-pyrido[3,4-b]indole]-1-carboxamide], the EC50 came to 0.62 µM.
Take `COc1ccc2c3c([nH]c2c1)[C@H](CO)N(C(C)=O)CC31CCN(Cc2ccccc2F)CC1` [Compound 21, (R)-1-(1-(2-fluorobenzyl)-1′-(hydroxymethyl)-7′-methoxyspiro[piperidine-4,4′-pyrido[3,4-b]indol]-2′(1′H,3′H,9′H)-yl)ethanone]: the EC50 was 4.01 µM.
Turning to `COc1ccc2c3c([nH]c2c1)[C@H](CO[Si](C)(C)C(C)(C)C)N(C(=O)C(C)(C)C)CC31CCN(C(=O)Nc2ccccc2F)CC1` [Compound 22, (R)-1′-(((tert-butyldimethylsilyl)oxy)methyl)-N-(2-fluorophenyl)-7′-methoxy-2′-pivaloyl-l′,2′,3′,9′-tetrahydrospiro[piperidine-4,4′-pyrido[3,4-b]indole]-1-carboxamide], the EC50 came to 0.43 µM.
With `COc1ccc2c3c([nH]c2c1)[C@H](CO)N(C(=O)C(C)(C)C)CC31CCN(C(=O)Nc2ccccc2F)CC1` [Compound 23, (R)-N-(2-fluorophenyl)-1′-(hydroxymethyl)-7′-methoxy-2'-pivaloyl-1′,2′,3′,9′-tetrahydrospiro[piperidine-4,4′-pyrido[3,4-b]indole]-1-carboxamide], the EC50 came out at 2.4 µM.
Same read-out and setting: the value for `COc1ccc2c3c([nH]c2c1)[C@H](CO[Si](C)(C)C(C)(C)C)N(C(C)=O)CC31CCN(C(=O)OC(C)(C)C)CC1` [Compound 24, (R)-tert-butyl 2′-acety1-1′-(((tert-butyldimethylsilyl)oxy)methyl)-7′-methoxy-1′,2′,3′,9′-tetrahydrospiro [piperidine-4,4′-pyrido[3,4-b]indole]-1-carboxylate] was 1.24 µM; that for `COc1ccc2c3c([nH]c2c1)[C@H](CO[Si](C)(C)C(C)(C)C)N(C(C)=O)CC31CCNCC1` [Compound 25, (R)-1-(1′-(((tert-butyldimethylsilyl)oxy)methyl)-7′-methoxyspiro[piperidine-4,4′-pyrido[3,4-b]indol]-2′(1′H,3′H,9′H)-yl)ethanone] was 1.62 µM.

The test is the same for the next values; noted with them: read-out: EC^50 Dd2.
As to `COc1ccc2c3c([nH]c2c1)[C@H](CO)N(C(=O)Cc1ccccc1)CC31CCN(C(=O)Nc2ccccc2F)CC1` [Compound 12], the EC50 was in the range of 0.246 to 0.291 µM.

Source of the values: patent US9428507B2, “Compounds for the treatment of malaria” (The Broad Institute, Inc., priority 2013, dated 2016).
